Measurements published in ChEMBL document CHEMBL1201862, “PubChem BioAssay data set” (2004).
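Method: 48-hour compound exposure of cells in 96-well plates, five concentrations, linear interpolation of endpoints. GI50 = concentration required for 50% inhibition of growth.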 Calls of active or inactive are those of the source. No stated cut-off is given here; in the data, active = GI50 up to about 1.1 µM and inactive = higher.

Assays:
Assay in all cases: NCI-60 cell line screen, 48 h
[1] = test system: HCC 2998
[2] = test system: UACC-62
[3] = test system: UO-31
[4] = test system: MDA-MB-435
[5] = test system: KM12
[6] = test system: NCI/ADR-RES
[7] = test system: HCT-116
[8] = test system: K562
[9] = test system: RXF 393
[10] = test system: MOLT-4
[11] = test system: NCI-H522
[12] = test system: SK-MEL-5
[13] = test system: RPMI-8226
[14] = test system: OVCAR-4
[15] = test system: TK-10
[16] = test system: SW-620
[17] = test system: BT-549
[18] = test system: NCI-H460
[19] = test system: HT-29

Cc1cc(C)c2c(O)cc(-c3cccc(F)c3)nc2n1
GI50 [1]: 0.301 µM (active)
GI50 [2]: < 0.0284 µM (active)
GI50 [3]: 12.9 µM (inactive)
GI50 [4]: < 0.01 µM (active)
GI50 [5]: 0.0351 µM (active)
GI50 [6]: 0.0422 µM (active)
GI50 [7]: < 0.0186 µM (active)
GI50 [8]: < 0.0175 µM (active)
GI50 [9]: 0.163 µM (active)
GI50 [10]: 0.22 µM (active)
GI50 [11]: 0.03 µM (active)
GI50 [12]: 0.0422 µM (active)
GI50 [13]: 0.139 µM (active)
GI50 [14]: 4.08 µM (inactive)
GI50 [15]: 23.7 µM (inactive)
GI50 [16]: < 0.0194 µM (active)
GI50 [17]: 0.175 µM (active)
GI50 [18]: 0.0738 µM (active)
GI50 [19]: 0.0405 µM (active)

O=C1OC(OC/C(Br)=C(\Br)COC2OC(=O)C(Cl)=C2Cl)C(Cl)=C1Cl (stereo not given)
GI50 [1]: 17.9 µM (inactive)
GI50 [2]: 6.3 µM (inactive)
GI50 [3]: 3.18 µM (inactive)
GI50 [4]: 7.24 µM (inactive)
GI50 [5]: 15.2 µM (inactive)
GI50 [6]: 4.92 µM (inactive)
GI50 [7]: 1.86 µM (inactive)
GI50 [8]: 1.14 µM (inactive)
GI50 [9]: 2.39 µM (inactive)
GI50 [10]: 0.807 µM (active)
GI50 [11]: 1.71 µM (inactive)
GI50 [12]: 8.83 µM (inactive)
GI50 [13]: 1.08 µM (active)
GI50 [14]: 7.6 µM (inactive)
GI50 [15]: 4.67 µM (inactive)
GI50 [16]: 2.39 µM (inactive)
GI50 [17]: 2.67 µM (inactive)
GI50 [18]: 13.2 µM (inactive)
GI50 [19]: 2.55 µM (inactive)

Nn1c(S)nnc1CCCCCCCCc1nnc(S)n1N
GI50 [1]: > 100 µM (inactive)
GI50 [2]: > 100 µM (inactive)
GI50 [3]: > 100 µM (inactive)
GI50 [4]: > 100 µM (inactive)
GI50 [5]: > 100 µM (inactive)
GI50 [6]: > 100 µM (inactive)
GI50 [7]: > 100 µM (inactive)
GI50 [8]: > 100 µM (inactive)
GI50 [9]: > 100 µM (inactive)
GI50 [10]: > 100 µM (inactive)
GI50 [11]: > 100 µM (inactive)
GI50 [13]: > 100 µM (inactive)
GI50 [14]: > 100 µM (inactive)
GI50 [16]: > 100 µM (inactive)
GI50 [17]: > 100 µM (inactive)
GI50 [18]: > 100 µM (inactive)
GI50 [19]: > 100 µM (inactive)

COc1ccc(-c2cc(-c3ccc(Nc4ccnc5cc(Cl)ccc45)cc3)[nH]c(=O)c2C#N)c2ccccc12
GI50 [1]: 5.51 µM (inactive)
GI50 [2]: 19.5 µM (inactive)
GI50 [3]: 5.32 µM (inactive)
GI50 [4]: 1.87 µM (inactive)
GI50 [5]: 3.47 µM (inactive)
GI50 [6]: > 100 µM (inactive)
GI50 [7]: 2.16 µM (inactive)
GI50 [8]: 2.37 µM (inactive)
GI50 [9]: 5.05 µM (inactive)
GI50 [10]: 2.13 µM (inactive)
GI50 [11]: 1.79 µM (inactive)
GI50 [12]: 13.1 µM (inactive)
GI50 [13]: 2.6 µM (inactive)
GI50 [14]: 1.79 µM (inactive)
GI50 [15]: 8.63 µM (inactive)
GI50 [16]: 3.51 µM (inactive)
GI50 [17]: 16.4 µM (inactive)
GI50 [18]: 11.1 µM (inactive)
GI50 [19]: 2 µM (inactive)

COc1ccc2c(c1)-c1c(c3cc(OC)ccc3n1CCN(C)C)CC2
GI50 [1]: 7.48 µM (inactive)
GI50 [2]: 10.9 µM (inactive)
GI50 [3]: 11.1 µM (inactive)
GI50 [4]: 12.6 µM (inactive)
GI50 [5]: 14 µM (inactive)
GI50 [6]: 16.3 µM (inactive)
GI50 [7]: 12.1 µM (inactive)
GI50 [8]: 6.81 µM (inactive)
GI50 [9]: 13.5 µM (inactive)
GI50 [10]: 10.7 µM (inactive)
GI50 [11]: 17.9 µM (inactive)
GI50 [12]: 12.4 µM (inactive)
GI50 [13]: 12.1 µM (inactive)
GI50 [14]: 17.1 µM (inactive)
GI50 [15]: 15.5 µM (inactive)
GI50 [16]: 15.2 µM (inactive)
GI50 [17]: 13.9 µM (inactive)
GI50 [18]: 12.2 µM (inactive)
GI50 [19]: 5.18 µM (inactive)

CC(=O)/C=C/CCC(=O)/C=C/C(=O)OC(CCC(=O)/C=C/C(=O)O)CC(C)=O (stereo not given)
GI50 [1]: > 100 µM (inactive)
GI50 [2]: 1.19 µM (inactive)
GI50 [4]: > 100 µM (inactive)
GI50 [5]: > 100 µM (inactive)
GI50 [6]: > 100 µM (inactive)
GI50 [7]: > 100 µM (inactive)
GI50 [8]: > 100 µM (inactive)
GI50 [9]: > 100 µM (inactive)
GI50 [10]: > 100 µM (inactive)
GI50 [11]: 96.4 µM (inactive)
GI50 [12]: > 100 µM (inactive)
GI50 [13]: 54.7 µM (inactive)
GI50 [14]: > 100 µM (inactive)
GI50 [15]: > 100 µM (inactive)
GI50 [16]: > 100 µM (inactive)
GI50 [17]: > 100 µM (inactive)
GI50 [18]: > 100 µM (inactive)
GI50 [19]: > 100 µM (inactive)

CCC1C(c2cc(OC)c(OC)c(OC)c2)c2cc3c(cc2OC1N1CCCC1)OCO3 (stereo not given)
GI50 [1]: 2.74 µM (inactive)
GI50 [2]: 1.31 µM (inactive)
GI50 [3]: 4.1 µM (inactive)
GI50 [4]: 0.277 µM (active)
GI50 [5]: 0.743 µM (active)
GI50 [6]: 1.41 µM (inactive)
GI50 [7]: 1.32 µM (inactive)
GI50 [8]: 0.752 µM (active)
GI50 [9]: 1.45 µM (inactive)
GI50 [10]: 1.95 µM (inactive)
GI50 [11]: 2.29 µM (inactive)
GI50 [12]: 0.678 µM (active)
GI50 [13]: 3.05 µM (inactive)
GI50 [14]: 12.7 µM (inactive)
GI50 [15]: 7.91 µM (inactive)
GI50 [16]: 1.21 µM (inactive)
GI50 [17]: 4.06 µM (inactive)
GI50 [18]: 2.84 µM (inactive)
GI50 [19]: 1.37 µM (inactive)
